Source: patent US20220370416A1, “COMPOUNDS AND METHODS FOR TARGETED DEGRADATION OF KRAS” (Arvinas Operations, Inc., priority 2020, published 2022)

Columns and labels:
[1] = target: T1, HiBit-KRAS^G12C (Homo sapiens, UniProt P01116, G12C); test: HiBit degradation assay in MiaPaCa-2 HiBit-KRas^G12C cells; type: cell-based; details: 24 hours; for Dmax: maximum degradation
Summary of the method: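 MiaPaCa-2 cells with CRISPR N-terminal HiBit knock-in on one endogenous KRAS^G12C allele, treated 24 hours at 37° C with compound titrated 10 μM to 20 nM (0.1% or 0.5% DMSO). Lytic HiBit luminescence normalized to DMSO, 4-parameter fit giving DC50 and Dmax; points cytotoxic to […] cells by alamar blue excluded.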

[2] = target: T1, HiBit-KRAS^G12C; test: HiBit degradation assay in SW1573 HiBit-KRas^G12C cells; type: cell-based; set-up: expressed in transfected cells; host or cells: SW1573 (clone E6), modified pcDNA3.1 vector, TK promoter; details: 24 hours; for Dmax: SW1573, SW1573 HiBit-KRas^G12C; for DC50: SW1573 HiBit-KRas^G12C
Summary of the method: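 SW1573 cells stably expressing N-terminally HiBit-tagged KRAS G12C, under the TK promoter, were treated 24 h at 37 °C with 10 μM to 20 nM compound in 0.1% or 0.5% DMSO. Residual HiBit luminescence normalised to DMSO and fitted with a 4-parameter model for DC50 and Dmax. Points with ≥50% viability loss (alamar blue) excluded.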

[3] = MIA PaCa-2, MiaPaCa-2 HiBit-KRas^G12C cells, 0.5% DMSO, read-out: KRas^G12C-HiBiT (MiaPaCa; 0.5% DMSO) DMax
[4] = read-out: KRas^G12C-HiBiT (MiaPaCa; 0.5% DMSO) IC50, MiaPaCa-2 HiBit-KRas^G12C cells, 0.5% DMSO
[5] = 0.5% DMSO, read-out: KRas^G12C-HiBiT (SW1573; 0.5% DMSO) Dmax**
[6] = read-out: KRas^G12C-HiBiT (SW1573; 0.5% DMSO) IC50***, 0.5% DMSO
[7] = MIA PaCa-2, MiaPaCa-2 HiBit-KRas^G12C cells, 0.1% DMSO, read-out: KRas^G12C-HiBiT (MiaPaCa; 0.1% DMSO) DMax
[8] = 0.1% DMSO, read-out: KRas^G12C-HiBit (SW1573; 0.1% DMSO) Dmax**
[9] = 0.1% DMSO, read-out: KRas^G12C-HIBit (SW1573; 0.1% DMSO) DC50*

T1 sequence (P01116 1-186 isoform P01116-2 G12C limits assumed): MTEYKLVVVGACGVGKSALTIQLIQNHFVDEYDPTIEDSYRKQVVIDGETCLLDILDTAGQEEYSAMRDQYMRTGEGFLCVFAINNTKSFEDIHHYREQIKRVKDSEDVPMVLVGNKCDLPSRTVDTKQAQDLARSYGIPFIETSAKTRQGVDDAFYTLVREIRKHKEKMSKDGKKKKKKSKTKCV

SMILES | Dmax [1, 3] [%] | DC50 [1, 4] [nM] | Dmax [2, 5] [%] | DC50 [2, 6] [nM] | Dmax [1, 7] [%] | Dmax [2, 8] [%] | DC50 [2, 9] [nM] | Dmax ([1]; MIA PaCa-2, read-out: KRas^G12C-HiBiT (MiaPaCa; 0.1% DMSO) DMax, MiaPaCa-2 HiBit-KRas^G12C cells, 0.1% DMSO) [%] | DC50 ([1]; read-out: KRas^G12C-HiBiT (MiaPaCa; 0.1% DMSO) IC50, MiaPaCa-2 HiBit-KRas^G12C cells, 0.1% DMSO) [nM]
C=CC(=O)N1CCN(c2nc(O[C@H](C)CN3CCC(CCC(=O)N[C@H](C(=O)N4C[C@H](O)C[C@H]4C(=O)N[C@@H](C)c4ccc(-c5scnc5C)cc4)C(C)(C)C)CC3)nc3c(F)c(-c4cc(O)cc5ccccc45)c(Cl)cc23)CC1 [Compound 37, (2S,4R)-1-[(2S)-2-(3-{1-[(2R)-2-{[6-chloro-8-fluoro-7-(3-hydroxynaphthalen-1-yl)-4-[4-(prop-2-enoyl)piperazin-1-yl]quinazolin-2-yl]oxy}propyl]piperidin-4-yl}propanamido)-3,3-dimethylbutanoyl]-4-hydroxy-N-[(1S)-1-[4-(4-methyl-1,3-thiazol-5-yl)phenyl]ethyl]pyrrolidine-2-carboxamide] | – | – | – | – | < 35 | 35 to 70 | 100 to 1000 | – | –
C=CC(=O)N1CCN(c2nc(OCCN3CCC(OCCOc4cc([C@@H](C(=O)N5C[C@@H](O)C[C@H]5C(=O)N[C@@H](C)c5ccc(-c6scnc6C)cc5)C(C)C)on4)CC3)nc3c(F)c(-c4cc(O)cc5ccccc45)c(Cl)cc23)C[C@@H]1CC#N [Compound 5, (2S,4S)-1-[(2S)-2-{3-[2-({1-[2-({6-chloro-4-[(3S)-3-(cyanomethyl)-4-(prop-2-enoyl)piperazin-1-yl]-8-fluoro-7-(3-hydroxynaphthalen-1-yl)quinazolin-2-yl}oxy)ethyl]piperidin-4-yl}oxy)ethoxy]-1,2-oxazol-5-yl}-3-methylbutanoyl]-4-hydroxy-N-[(1S)-1-[4-(4-methyl-1,3-thiazol-5-yl)phenyl]ethyl]pyrrolidine-2-carboxamide] | – | – | – | – | – | – | > 1000 | < 35 | 100 to 1000
C=CC(=O)N1CCN(c2nc(OC[C@@H]3CCN(CCCOCC(=O)N[C@H](C(=O)N4C[C@H](O)C[C@H]4C(=O)N[C@@H](C)c4ccc(-c5scnc5C)cc4)C(C)(C)C)C3)nc3c(F)c(-c4cc(O)cc5ccccc45)c(Cl)cc23)C[C@@H]1CC#N [Compound 95, (2S,4R)-1-[(2S)-2-(2-{3-[(3R)-3-[({6-chloro-4-[(3S)-3-(cyanomethyl)-4-(prop-2-enoyl)piperazin-1-yl]-8-fluoro-7-(3-hydroxynaphthalen-1-yl)quinazolin-2-yl}oxy)methyl]pyrrolidin-1-yl]propoxy}acetamido)-3,3-dimethylbutanoyl]-4-hydroxy-N-[(1S)-1-[4-(4-methyl-1,3-thiazol-5-yl)phenyl]ethyl]pyrrolidine-2-carboxamide] | > 70 | > 1000 | > 70 | 100 to 1000 | – | – | – | – | –
C=CC(=O)N1CCN(c2nc(OCCN3CCC(OCCOc4cc([C@@H](C(=O)N5C[C@H](O)C[C@H]5C(=O)N[C@@H](C)c5ccc(-c6scnc6C)cc5)C(C)C)on4)CC3)nc3c(F)c(-c4cc(O)cc5ccccc45)c(Cl)cc23)C[C@@H]1CC#N [Compound 22, (2S,4R)-1-[(2S)-2-{3-[2-({1-[2-({6-chloro-4-[(3S)-3-(cyanomethyl)-4-(prop-2-enoyl)piperazin-1-yl]-8-fluoro-7-(3-hydroxynaphthalen-1-yl)quinazolin-2-yl}oxy)ethyl]piperidin-4-yl}oxy)ethoxy]-1,2-oxazol-5-yl}-3-methylbutanoyl]-4-hydroxy-N-[(1S)-1-[4-(4-methyl-1,3-thiazol-5-yl)phenyl]ethyl]pyrrolidine-2-carboxamide] | – | – | – | – | < 35 | < 35 | 100 to 1000 | – | –
C=CC(=O)N1CCN(c2nc(OCCN3CCC(COc4cc([C@@H](C(=O)N5C[C@@H](O)C[C@H]5C(=O)N[C@@H](C)c5ccc(-c6scnc6C)cc5)C(C)C)on4)CC3)nc3c(F)c(-c4cc(O)cc5ccccc45)c(Cl)cc23)C[C@@H]1CC#N (atropisomer, axis not shown) [Compound 105, (2S,4S)-1-[(2S)-2-[3-({1-[2-({6-chloro-4-[(3S)-3-(cyanomethyl)-4-(prop-2-enoyl)piperazin-1-yl]-8-fluoro-7-(3-hydroxynaphthalen-1-yl)quinazolin-2-yl}oxy)ethyl]piperidin-4-yl}methoxy)-1,2-oxazol-5-yl]-3-methylbutanoyl]-4-hydroxy-N-[(1S)-1-[4-(4-methyl-1,3-thiazol-5-yl)phenyl]ethyl]pyrrolidine-2-carboxamide] | < 35 | < 100 | – | > 1000 | – | – | – | – | –

Continued, in another order:

Dmax [1, 3] [%] | DC50 [1, 4] [nM] | Dmax [2, 5] [%] | DC50 [2, 6] [nM] | Dmax [1, 7] [%] | Dmax [2, 8] [%] | DC50 [2, 9] [nM] | SMILES | Dmax ([1]; MIA PaCa-2, read-out: KRas^G12C-HiBiT (MiaPaCa; 0.1% DMSO) DMax, MiaPaCa-2 HiBit-KRas^G12C cells, 0.1% DMSO) [%] | DC50 ([1]; read-out: KRas^G12C-HiBiT (MiaPaCa; 0.1% DMSO) IC50, MiaPaCa-2 HiBit-KRas^G12C cells, 0.1% DMSO) [nM]
> 70 | 100 to 1000 | > 70 | 100 to 1000 | – | – | – | C=CC(=O)N1CCN(c2nc(OCCN3CCC(CN(C)c4cc([C@H](C(=O)N5C[C@H](O)C[C@H]5C(=O)N[C@@H](C)c5ccc(-c6scnc6C)cc5)C(C)C)on4)CC3)nc3c(F)c(-c4cc(O)cc5ccccc45)c(Cl)cc23)C[C@@H]1CC#N [Compound 143, (2S,4R)-1-[(2R)-2-{3-[({1-[2-({6-chloro-4-[(3S)-3-(cyanomethyl)-4-(prop-2-enoyl)piperazin-1-yl]-8-fluoro-7-(3-hydroxynaphthalen-1-yl)quinazolin-2-yl}oxy)ethyl]piperidin-4-yl}methyl)(methyl)amino]-1,2-oxazol-5-yl}-3-methylbutanoyl]-4-hydroxy-N-[(1S)-1-[4-(4-methyl-1,3-thiazol-5-yl)phenyl]ethyl]pyrrolidine-2-carboxamide] | – | –
> 70 | 100 to 1000 | > 70 | 100 to 1000 | – | – | – | C=CC(=O)N1CCN(c2nc(OCCN3CCC(COCC(=O)N[C@H](C(=O)N4C[C@H](O)C[C@H]4C(=O)N[C@@H](C)c4ccc(-c5scnc5C)cc4)C(C)(C)C)CC3)nc3c(F)c(-c4cc(O)cc5ccccc45)c(Cl)cc23)[C@@H](C)C1 [Compound 119, (2S,4R)-1-[(2S)-2-(2-{[1-(2-{[6-chloro-8-fluoro-7-(3-hydroxynaphthalen-1-yl)-4-[(2S)-2-methyl-4-(prop-2-enoyl)piperazin-1-yl]quinazolin-2-yl]oxy}ethyl)piperidin-4-yl]methoxy}acetamido)-3,3-dimethylbutanoyl]-4-hydroxy-N-[(1S)-1-[4-(4-methyl-1,3-thiazol-5-yl)phenyl]ethyl]pyrrolidine-2-carboxamide] | – | –
35 to 70 | – | 35 to 70 | – | < 35 | 35 to 70 | 100 to 1000 | C=CC(=O)N1CCN(c2nc(OCCN3CCC(CCOCC(=O)N[C@H](C(=O)N4C[C@H](O)C[C@H]4C(=O)N[C@@H](C)c4ccc(-c5scnc5C)cc4)C(C)(C)C)CC3)nc3c(F)c(-c4cc(O)cc5ccccc45)c(Cl)cc23)CC1 [Compound 64, (2S,4R)-1-[(2S)-2-(2-{2-[l-(2-{[6-chloro-8-fluoro-7-(3-hydroxynaphthalen-1-yl)-4-[4-(prop-2-enoyl)piperazin-1-yl]quinazolin-2-yl]oxy}ethyl)piperidin-4-yl]ethoxy}acetamido)-3,3-dimethylbutanoyl]-4-hydroxy-N-[(1S)-1-[4-(4-methyl-1,3-thiazol-5-yl)phenyl]ethyl]pyrrolidine-2-carboxamide] | – | –
35 to 70 | – | > 70 | – | 35 to 70 | 35 to 70 | 100 to 1000 | C=CC(=O)N1CCN(c2nc(O[C@H](C)CN3CCC(COCC(=O)N[C@H](C(=O)N4C[C@H](O)C[C@H]4C(=O)N[C@@H](C)c4ccc(-c5scnc5C)cc4)C(C)(C)C)CC3)nc3c(F)c(-c4cc(O)cc5ccccc45)c(Cl)cc23)CC1 [Compound 65, (2S,4R)-1-[(2S)-2-[2-({1-[(2R)-2-{[6-chloro-8-fluoro-7-(3-hydroxynaphthalen-1-yl)-4-[4-(prop-2-enoyl)piperazin-1-yl]quinazolin-2-yl]oxy}propyl]piperidin-4-yl}methoxy)acetamido]-3,3-dimethylbutanoyl]-4-hydroxy-N-[(1S)-1-[4-(4-methyl-1,3-thiazol-5-yl)phenyl]ethyl]pyrrolidine-2-carboxamide] | – | –
